Legend:
[1] = system: Th Ser40 phosphorylation in mouse striatum slices; experiment: Th Ser40 phosphorylation in mouse striatal slices ex vivo (WES automated western); type: cell-based; conditions: mouse striatal slices in aCSF
Description: FIG. 13. Bay 60-7550 and Guanylin synergize to induce Ser40 phosphorylation Analysis of striatal slices treated with indicated compounds. WES data showing the phosphorylation of Th on Serine 40 is shown as well as total Th levels (a). From left to right are sequential striatal slices from rostral to caudal. Every slice is split into left and right hemisphere and either treated with compounds or vehicle. Left a positive and negative control is shown (Neuro2a cells transfected with Th or empty vector). The amount of Th Ser40 is corrected for the amount of total Th and shown in the bar graph (b). Each individual slice is indicated by a different symbol. Signficance is determined using a 2-tailed paired t-test. 2-tailed paired t-test: p=0.006.
Adult mice with an average of 5 weeks were sacrificed and the brain was quickly removed and sliced into coronal sections of 250 μm using a vibratome. Sections containing striatum were micro-dissected to remove non-striatal structures. Hemispheres were separated and one hemisphere was treated with compounds whereas the counter-hemisphere was treated with vehicle. Treatment of slices occurred in carbonized artificial cerebrospinal fluid (aCSF). After treatments, slices were lyzed in SDS containing sample buffer, sonicated, and heated at 95° C. Samples were analyzed on a WES automated western system (Protein Simple) according to manufacturer's instructions.
To investigate the effect of PDE2 inhibition in the mouse brain, an ex-vivo approach using brain slices was utilized. Coronal slices of mouse striatum were prepared and treated with BAY-60 7550 diluted in aCSF and subsequently analyzed by a WES automated western system. […] PDE2 is thus expressed in dopaminergic neurons and PDE2 protein and Th protein are present in the synaptic terminals of the neurons which project from the midbrain dopamine system to the striatum. To investigate the effects of GUCY2C ligands on Th activation, coronal slices of the mouse striatum were prepared, treated with guanylin and analyzed for Th Ser40 phosphorylation as was done for BAY-60-7550. […] The machinery for producing dopamine is thus present in the synaptic terminals where dopamine is released. […] Since both BAY 60-7550 and guanylin increased Th phosphorylation at 10μM, but not at 1 μM, we examined the effect of combining BAY 60-7750 and guanylin at 1μM.

GUCY2C = GUCY2C (Homo sapiens, UniProt P25092); experiment: Th Ser40 phosphorylation in HEK cells co-transfected with Th and GUCY2C (western blot); type: cell-based; parameters: expressed in transfected cells; host or cells: HEK cells (ATCC), calcium-phosphate transfection, co-transfected with mouse Th; conditions: guanylin 10 μM, uroguanylin 1 μM, IBMX 100 μM, 1 hour
Chain of GUCY2C (P25092 24-1073): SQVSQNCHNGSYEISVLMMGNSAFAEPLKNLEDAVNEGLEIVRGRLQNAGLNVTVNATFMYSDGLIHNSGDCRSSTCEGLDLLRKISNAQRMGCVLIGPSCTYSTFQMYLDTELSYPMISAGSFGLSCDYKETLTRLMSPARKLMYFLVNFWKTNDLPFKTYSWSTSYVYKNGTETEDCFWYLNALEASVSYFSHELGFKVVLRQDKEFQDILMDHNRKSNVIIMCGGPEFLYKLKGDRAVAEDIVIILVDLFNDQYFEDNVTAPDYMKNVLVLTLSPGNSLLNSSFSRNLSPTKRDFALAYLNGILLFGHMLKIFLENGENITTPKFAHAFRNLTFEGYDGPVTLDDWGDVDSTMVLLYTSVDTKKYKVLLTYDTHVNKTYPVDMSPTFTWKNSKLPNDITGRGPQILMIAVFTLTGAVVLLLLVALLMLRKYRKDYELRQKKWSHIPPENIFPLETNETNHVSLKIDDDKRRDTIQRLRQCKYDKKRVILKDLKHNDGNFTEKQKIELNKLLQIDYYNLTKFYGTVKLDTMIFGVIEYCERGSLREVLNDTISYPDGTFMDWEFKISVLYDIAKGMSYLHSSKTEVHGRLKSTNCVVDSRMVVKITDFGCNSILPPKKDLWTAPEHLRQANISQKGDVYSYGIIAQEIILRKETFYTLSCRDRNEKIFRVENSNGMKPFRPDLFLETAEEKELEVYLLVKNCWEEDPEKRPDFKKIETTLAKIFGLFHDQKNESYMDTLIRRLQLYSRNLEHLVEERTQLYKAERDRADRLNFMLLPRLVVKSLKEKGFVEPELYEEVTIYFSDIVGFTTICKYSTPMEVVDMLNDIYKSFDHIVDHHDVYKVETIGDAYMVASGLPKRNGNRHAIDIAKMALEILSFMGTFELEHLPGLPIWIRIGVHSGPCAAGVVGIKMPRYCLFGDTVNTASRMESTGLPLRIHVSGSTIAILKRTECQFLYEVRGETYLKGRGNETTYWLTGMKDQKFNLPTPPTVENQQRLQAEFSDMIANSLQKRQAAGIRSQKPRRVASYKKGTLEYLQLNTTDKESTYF
Procedure: FIG. 4. GUCY2C activation increases Ser40 phosphorylation. Immunocytochemistry images (A) and western blotting analysis (B) of HEK cultures transfected with Th or Th+GUCY2C. (C) Co-transfected HEK cells were treated with guanylin (G) or uroguanylin (UroG) and changes in Ser40 phosphorylation were studied. The graph represents the statistical analysis (n=3 for Control, n=6 for Guanylin, n=9 for Uroguanylin; Mean±SEM). Unpaired Student's t-test (p-value: **<0.01).
FIG. 5. […] (A) HEK cultures were treated with guanylin, in the presence or absence of IBMX. […] Unpaired Student's t-test (p-values: ****<0.0001, **<0.01, *<0.05). (B) HEK cells were co-transfected with Th and either the wt GUCY2C or a gain-of-function mutant (R792S). Ser40 phosphorylation was studied following guanylin treatment (G). […] Unpaired Student's t-test (p-values: ***<0.001, **<0.01).
HEK cells were maintained in 100-mm Petri dishes and grown in DMEM medium supplemented with L-glutamine, penicillin-streptomycin (Pen&Strep) and 10% heat-inactivated fetal bovine serum (HIFBS). Growing conditions were 37° C. and 5% CO2. For every-other-day passages, HEK cultures were split at a 1:3 dilution. From Friday to Monday, the split proportion was doubled for all cell lines. For passaging, cultures were rinsed with PBS and incubated with 1 mL of trypsin during 5 minutes. Cells were resuspended in growth medium and finally split to the proper dilution. The experiments were performed in 12-well plates. For immunocytochemistry analysis, sterile 18-mm coverslips were added prior to the plating. 500 !μL of cell resuspension was seeded in each well. If experiments were to be performed 48 hours after the plate preparation, 1:5 was the seeding ratio for HEK cells. When the experiments took place 96 hours post-plating, 1:7 was the working dilution for HEK cells. Unless otherwise stated, HEK cultures were processed 96 hours post-plating.
HEK cells were transfected using the calcium-phosphate method. 12-well plates were refreshed with 500 μL of growth medium before transfection. […]

| Compound | Ser40 phosphorylation in striatal slices ([1]; 1 μM) | Ser40 phosphorylation in striatal slices ([1]; 10 μM) | P-Ser40 levels / Ser40 phosphorylation (in words) (GUCY2C) |
| --- | --- | --- | --- |
| COc1ccc(Cc2nn3c([C@@H](CCCc4ccccc4)[C@@H](C)O)nc(C)c3c(=O)[nH]2)cc1OC [BAY 60-7550] | did not result in a significant increase | increase in Ser40 phosphorylation | – |
| guanylin: natural agonistic ligand of GUCY2C, 15 amino acid polypeptide; commercially available rat/mouse guanylin (Chemcruz) (PNTCEICAYAACTGC) [reference compound] | did not result in a significant increase | increase in Ser40 phosphorylation | increase P-Ser40 levels |
